Assay results: US6927230B2, “Triazole derivatives” (Fujisawa Pharmaceutical Co., Ltd., priority 2001, dated 2005)
pIC50: −log10 of the molar value. Read-outs that look alike come from different tables or passages of the source.

Key:
platelet aggregation = test: Inhibiting activity on aggregation of platelet (collagen-induced, platelet-rich plasma); assay type: cell-based; details: human platelet-rich plasma, collagen 0.5 μg/mL as agonist; read-out: IC50 (inhibition of platelet aggregation)
Method: Blood from healthy human volunteers was collected into plastic vessels containing 3.8% sodium citrate (1/10 volume). The subject had no taken any compounds for at least seven days prior to blood collection. Platelet-rich plasma was obtained from the supernatant fraction of blood after centrifugation at 1200 r.p.m. for 10 min. Platelet-poor plasma was obtained by centrifugation of the remaining blood at 3000 r.p.m. for 10 min.
Platelet aggregation was measured according to the turbidimetric method with an aggregometer (Hema Tracer). In the cuvette, platelet-rich plasma was pre-incubated for 2 min at 37 C after the addition of compounds or vehicle. In order to quantify the inhibitory effects of each compound, the maximum increase in light transmission was determined from the aggregation curve for 7 min after the addition of agonist. We used collagen as agonist of platelet aggregation in this study. The final concentration of collagen was 0.5 μg/mL. The effect of each compound was expressed as percentage inhibition agonist-induced platelet aggregation compared with vehicle treatment. Data are presented as the mean±S.E.M. for six experiments. The IC50 value was obtained by linear regression, and is expressed as the compound concentration required to produce 50% inhibition of agonist-induced platelet aggregation in comparison to vehicle treatment.

[1] = test system: adjuvant arthritis in Lewis rats; test: Analgesic activity: effect on adjuvant arthritis in rats (Randall-Selitto pain threshold); assay type: in vivo, rat; details: dose 3.2 mg/kg; ratio of mechanical pain threshold of treated vs non-treated arthritic rats, 2 hr after administration; ratio of 1.5 = effective dose
COX-II = target: T1, COX-II (Homo sapiens, UniProt P35354); test: Whole blood assay for COX-II (LPS-induced PGE2 production); assay type: cell-based
T1 construct: lipopolysaccharide for 24 hr at 37 C for induction of COX-2; from tissue; host or cells: fresh heparinized human whole blood from volunteers, LPS-stimulated for 24 hr
T1 sequence (P35354 18-604): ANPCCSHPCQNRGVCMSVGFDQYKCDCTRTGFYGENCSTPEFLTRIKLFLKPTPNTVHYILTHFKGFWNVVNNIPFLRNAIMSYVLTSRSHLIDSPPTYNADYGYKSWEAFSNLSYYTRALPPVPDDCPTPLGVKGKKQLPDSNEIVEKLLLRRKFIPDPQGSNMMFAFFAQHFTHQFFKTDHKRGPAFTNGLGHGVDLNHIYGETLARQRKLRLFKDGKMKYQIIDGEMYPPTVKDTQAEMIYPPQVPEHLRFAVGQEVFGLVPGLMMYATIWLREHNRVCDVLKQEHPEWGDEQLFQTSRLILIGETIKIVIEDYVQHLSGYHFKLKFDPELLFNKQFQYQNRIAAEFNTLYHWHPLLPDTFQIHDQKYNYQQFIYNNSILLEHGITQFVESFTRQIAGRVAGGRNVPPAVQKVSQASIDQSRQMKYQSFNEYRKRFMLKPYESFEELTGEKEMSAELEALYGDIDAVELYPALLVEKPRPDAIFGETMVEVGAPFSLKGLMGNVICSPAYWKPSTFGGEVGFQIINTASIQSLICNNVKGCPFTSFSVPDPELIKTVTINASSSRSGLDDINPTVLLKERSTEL
Method: Fresh blood was collected in heparinized tubes by syringe from volunteers with consent. The subjects had no apparent inflammatory conditions and had not taken any medication for at least 7 days prior to blood collection. 500 μl aliquots of human whole blood were incubated with either 2 μl DMSO vehicle or 2 μl of a test compound at final concentrations for 15 min at 37 C This was followed by incubation of the blood with 10 μl of 5 mg/ml lipopolysaccharide for 24 hr at 37 C for induction of COX-2. Appropriate PBS treatments (no LPS) were used as blanks. At the end of the incubation, the blood was centrifuged at 6000×g for 5 min at 4 C to obtain plasma. A 100 μl aliquot of plasma was mixed with 400 μl methanol for protein precipitation. The supernatant was obtained by centrifuging at 6000×g for 5 min at 4 C and was assayed for PGE2 using a radioimmunoassay kit after conversion of PGE2 to its methyl oximate derivative according to the manufacturer's procedure. For a test compound, the results were expressed as percent inhibition of PGE2 production relative to control incubations containing DMSO vehicle. The data were analyzed by that a test compound at the indicated concentrations was changed log value and was applied simple linear regression. IC50 value was calculated by least squares method.

COX-I = target: T2, COX-I (Homo sapiens, UniProt P23219); test: Whole blood assay for COX-I (TXB2 production); assay type: cell-based
T2 construct: Fresh blood was collected by syringe without anticoagulants from volunteers with consent; from tissue; host or cells: fresh human whole blood from volunteers, no anticoagulant, allowed to clot
T2 sequence (P23219 24-599): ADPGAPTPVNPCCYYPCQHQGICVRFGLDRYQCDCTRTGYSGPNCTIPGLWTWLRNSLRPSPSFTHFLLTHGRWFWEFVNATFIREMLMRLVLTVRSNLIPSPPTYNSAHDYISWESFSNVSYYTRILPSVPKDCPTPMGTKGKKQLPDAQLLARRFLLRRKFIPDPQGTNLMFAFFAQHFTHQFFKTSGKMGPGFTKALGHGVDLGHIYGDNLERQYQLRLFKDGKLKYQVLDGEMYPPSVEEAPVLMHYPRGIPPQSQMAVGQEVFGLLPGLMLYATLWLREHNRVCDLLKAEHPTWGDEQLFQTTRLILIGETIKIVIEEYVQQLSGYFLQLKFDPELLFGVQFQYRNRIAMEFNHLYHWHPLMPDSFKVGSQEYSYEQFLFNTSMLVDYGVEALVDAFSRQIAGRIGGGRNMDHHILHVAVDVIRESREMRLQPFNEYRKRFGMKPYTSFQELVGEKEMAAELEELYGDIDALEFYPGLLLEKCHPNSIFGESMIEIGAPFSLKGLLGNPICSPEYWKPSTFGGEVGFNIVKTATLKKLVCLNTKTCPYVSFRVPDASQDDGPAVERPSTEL
Method: Fresh blood was collected by syringe without anticoagulants from volunteers with consent. The subjects had no apparent inflammatory conditions and had not taken any medication for at least 7 days prior to blood collection. 500 μl aliquots of human whole blood were immediately incubated with 2 μl of either DMSO vehicle or a test compound at final concentrations for 1 hr at 37 C. to allow the blood to clot. Appropriate treatments (no incubation) were used as blanks. At the end of the incubation, 5 μl of 250 mM Indomethacin was added to stop the reaction. The blood was centrifuged at 6000×g for 5 min at 4 C to obtain serum. A 100 μl aliquot of serum was mixed with 400 μl methanol for protein precipitation. The supernatant was obtained by centrifuging at 6000×g for 5 min at 4 C and was assayed for TXB2 using an enzyme immunoassay kit according to the manufacturer's procedure. For a test compound, the results were expressed as percent inhibition of TXB2 production relative to control incubations containing DMSO vehicle. The data were analyzed by that a test compound at the indicated concentrations was changed log value and was applied simple linear regression. IC50 value was calculated by least squares method.

[2] = human whole blood, LPS 24 hr at 37 C, PGE2 production, read-out: COX-II IC50
[3] = human whole blood, 1 hr at 37 C, TXB2 production, read-out: COX-I IC50

Row | SMILES | pIC50 (platelet aggregation) | pIC50 (COX-II; [2]) | pIC50 (COX-I; [3]) | melting point | The coefficient of analgesic [1] | pIC50 (COX-II) | pIC50 (COX-I)
1 | COc1ccc(-c2nc(OC)nn2-c2ccc(OC)cc2)cc1 [5(4), 3-Methoxy-1,5-bis(4-methoxyphenyl)-1H-1,2,4-triazole] | > 7.70 |  |  |  | >=1.5 |  | 
2 | COc1ccc(-n2nc(OCC(F)(F)F)nc2-c2ccc(OC)nc2)cc1 [14-(3), 2-methoxy-5-(1-(4-methoxyphenyl)-3-(2,2,2-trifluoroethoxy)-1H-1,2,4-triazole-5-yl)pyridine] |  |  |  | 82 to 83 °C |  |  | 
3 | COc1ccc(-c2nc(OC(=O)N(C)C)nn2-c2ccc(OC)cc2)cc1 [Example 16, 1,5-bis(4-methoxyphenyl)-1H-1,2,4-triazol-3-yl dimethylcarbamate] |  |  |  | 121 to 123 °C |  | < 7.00 | > 8.00
4 | C#CCOc1nc(-c2ccc(OC)cc2)n(-c2ccc(OC)cc2)n1 [Example 17, 1,5-bis(4-methoxyphenyl)-3-(2-propynyloxy)-1H-1,2,4-triazole] |  | < 7.00 | > 8.00 | 81 to 82 °C |  |  | 
5 | COc1ccc(-c2nc(OCc3cc(C)on3)nn2-c2ccc(OC)cc2)cc1 [Example 19, 1,5-bis(4-methoxyphenyl)-3-[(5-methyl-3-isoxazolyl)methoxy]-1H-1,2,4-triazole] | > 7.70 | < 7.00 | > 8.00 |  |  |  | 
6 | COc1ccc(-c2nc(OCc3cscn3)nn2-c2ccc(OC)cc2)cc1 [Example 20, 1,5-bis(4-methoxyphenyl)-3-(1,3-thiazol-4-ylmethoxy)-1H-1,2,4-triazole] |  | < 7.00 | > 8.00 |  |  |  | 
7 | COc1ccc(-c2nc(OCC(=O)N(C)C)nn2-c2ccc(OC)cc2)cc1 [Example 21, 2-{[1,5-bis(4-methoxyphenyl)-1H-1,2,4-triazol-3-yl]oxy}-N,N-dimethylacetamide] |  | < 7.00 | > 8.00 |  |  |  | 
8 | COc1ccc(-c2nc(OC(C)C)nn2-c2ccc(OC)cc2)cc1 [Example 23, 1,5-bis(4-methoxyphenyl)-3-(2-propoxy)-1H-1,2,4-triazole] |  | < 7.00 | > 8.00 |  |  |  | 
9 | COc1ccc(-c2nc(OC3CCCCC3)nn2-c2ccc(OC)cc2)cc1 [Example 25, 1,5-bis(4-methoxyphenyl)-3-cyclohexyloxy-1H-1,2,4-triazole] | > 7.70 | < 7.00 | > 8.00 |  | >=1.5 |  | 
10 | COc1ccc(-c2nc(OCc3ccc(Cl)cc3)nn2-c2ccc(OC)cc2)cc1 [Example 26, 1,5-bis(4-methoxyphenyl)-3-(4-chlorophenylmethoxy)-1H-1,2,4-triazole] |  | < 7.00 | > 8.00 |  |  |  | 

Now from value to molecule, other results behind:

Row | pIC50 (platelet aggregation) | pIC50 (COX-II; [2]) | pIC50 (COX-I; [3]) | melting point | SMILES | The coefficient of analgesic [1] | pIC50 (COX-II) | pIC50 (COX-I)
11 | > 7.70 | < 7.00 | > 8.00 |  | COc1ccc(-c2nc(C(F)(F)F)nn2-c2ccc(OC)cc2)cc1 [1(2), 1,5-bis(4-methoxyphenyl)-3-(trifluoromethyl)-1H-1,2,4-triazole] | >=1.5 |  | 
12 |  | < 7.00 | > 8.00 |  | COc1ccc(-c2nc(SC)nn2-c2ccc(OC)cc2)cc1 [6(4), 1,5-bis(4-methoxyphenyl)-3-(methylthio)-1H-1,2,4-triazole] |  |  | 
13 |  | < 7.00 | > 8.00 |  | COc1ccc(-c2nc(S(C)(=O)=O)nn2-c2ccc(OC)cc2)cc1 [6(6), 1,5-bis(4-methoxyphenyl)-3-(methylsulfonyl)-1H-1,2,4-triazole] |  |  | 
14 |  | < 7.00 | > 8.00 |  | COc1ccc(-c2nc(C(F)(F)F)nn2-c2ccc(OC)nc2)cc1 [12(2), 2-methoxy-5-[5-(4-methoxyphenyl)-3-(trifluoromethyl)-1H-1,2,4-triazol-1-yl]pyridine] |  |  | 
15 | > 7.70 | < 7.00 | > 8.00 | 63 to 64 °C | COc1ccc(-c2nc(OCC(F)(F)F)nn2-c2ccc(OC)nc2)cc1 [15-(4), 2-methoxy-5-(5-(4-methoxyphenyl)-3-(2,2,2-trifluoroethoxy)-1H-1,2,4-triazol-1-yl)pyridine] |  |  | 
16 |  | < 7.00 | > 8.00 |  | COc1ccc(-n2nc(C(F)(F)F)nc2-c2ccc(OC)nc2)cc1 [Example 8, 2-methoxy-5-[1-(4-methoxyphenyl)-3-(trifluoromethyl)-1H-1,2,4-triazol-5-yl]pyridine] |  |  | 
